# Key:
# CT26 tumor cells = assay: Tumor sphere formation of cells dissociated from treated CT26 tumors; format: cell-based, mouse; settings: 1000 live tumor cells from treated tumors, 10 days in culture, vs control
# Experimental: Portions of tumor tissues were dissociated into a single cell suspension by enzymatic digestion with DMEM (Gibco) containing 200 U/mL Collagenase (Sigma) and 100 U/mL DNAse I (Sigma) at 37° C. for 30 minutes. Cells were then filtered through 40 μm strainers and incubated for 5 min at room temperature in ACK lysis buffer (Thermo Fisher) to remove red blood cells. 1000 live tumor cells, as assessed by Trypan blue (Gibco) staining, were then suspended in 1 mL sphere medium and plated on a low-attachment cell culture 12-well plate in triplicate. Cancer sphere culture medium included B-27 (Gibco), 20 ng/ml EGF (R&D), 10 ng/ml basicFGF (R&D), 0.4% BSA Gemini, and 0.3% agarose in DMEM/F12 (Gibco). After 10 days in culture, the number of tumor spheres was counted.
# FaDu sphere cultures = assay: qPCR cancer stem cell array in FaDu sphere cultures; format: cell-based; design: % Change ATM / % Change MERTK / % Change NOTCH2 / % Change LATS1 / % Change ITGA2 / % Change SMO / % Change TGFBR1 / % Change MAML1 / % Change WWC1 / % Change ITGA6 / % Change ITGB1 / % Change AXL / % Change KITLG / % Change JAK2 / % Change YAP1 / % Change BMI1 / % Change NOTCH1 / % Change ATXN1 / % Change ERBB2 / % Change SIRT1 / % Change WEE1 / % Change FGFR2 / % Change DDR1 / % Change GSK3B / % Change ENG / % Change DACH1 / % Change ALCAM / % Change HDAC1 / % Change CD44 / % Change HPRT1 / % Change IKBKB / % Change DNMT1 / % Change ETFA / % Change FOXP1 / % Change FLOT2 / % Change CHEK1 / % Change MUC1 / % Change CD24 / % Change NFKB1 / % Change NANOG / % Change ACTB / % Change EPCAM / % Change STAT3 / % Change TWIST2 / % Change PLAUR / % Change EGF / % Change ALDH1A1 / % Change RPLP0 / % Change TAZ / % Change JAG1 / % Change KLF17 / % Change ID1 / % Change ITGA4 / % Change IL8 / % Change MYC / % Change CD34 / % Change LIN28A / % Change POU5F1 / % Change PECAM1: dose or concentration left out as unconfirmed; settings: 6 hours, normalized to GAPDH
# Experimental: The changes in gene expression following treatment with BBI608 were analyzed. FaDu sphere cultures were treated for 6 hours with DMSO (control) or BBI608 at […]. Total RNA was isolated, reversed transcribed and the generated cDNA was analyzed using a qPCR cancer stem cell array. Data was normalized to the expression of the house keeping gene, GAPDH.
# IL-6 = IL-6 level in colorectal cancer xenograft model (SW480); format: in vivo, mouse; settings: SW480 xenograft, 0, 1, 2, 4, 8, or 24 hours after treatment
# Experimental: At the end of treatment, tumors were harvested from euthanized mice. Part of the dissected tumors were fixed overnight in 3.7% or 10% neutral buffered formaldehyde at 4° C., and then paraffin embedded, cut to 4-5 micron sections, and affixed onto positively charged slides. After baking and deparaffinization, the slides with tumor or control tissues were incubated in a 10 mM sodium citrate solution pH=6.0 for antigen retrieval at 98° C. Afterwards, slides were probed with primary antibodies against P-STAT3 (Tyr705) (rabbit, Cell Signaling, 1:100), β-CATENIN (mouse, Santa Cruz, 1:400), IL-6 (mouse, Novus Biol., 1:100), PD-L1 (rabbit, Cell Signaling, 1:100), PCNA (mouse, Santa Cruz, 1:5000), CD8a (rabbit, Santa Cruz, 1:30), CD44 (rat, BioLegend, 1:50), CD44 (mouse, Cell Signaling, 1:100), CD133 (mouse, Miltenyi, 1:100), IDO1 (mouse, Millipore 1:100), or/and CD3 (rabbit, Abcam, 1:100) at 4° C. overnight, and then AlexaFluor fluorescent dye-conjugated secondary antibodies (Invitrogen, 1:300 or 1:500) at room temperature for one hour. After mounting in ProLong mounting medium containing DAPI (Invitrogen), the slides were examined on a Zeiss Axio Imager M2 upright fluorescence microscope with a 20× objective and analyzed with Zen software.
structure (smiles),measurement,setting,value
"CC(=O)c1cc2c(o1)C(=O)c1ccccc1C2=O [BBI608, 2-acetylnaphtho[2,3-b]furan-4,9-dione]",number of tumor spheres,CT26 tumor cells,significantly lower numbers of spheres than control
same,% Change ACTB,FaDu sphere cultures; gene ACTB,−24.49%
same,% Change ALCAM,FaDu sphere cultures; gene ALCAM,−36.13%
same,% Change ALDH1A1,FaDu sphere cultures; gene ALDH1A1,−18.18%
same,% Change ATM,FaDu sphere cultures; gene ATM,−68.65%
same,% Change ATXN1,FaDu sphere cultures; gene ATXN1,−45.26%
same,% Change AXL,FaDu sphere cultures; gene AXL,−48.50%
same,% Change B2M,FaDu sphere cultures; gene B2M,−27.69%
same,% Change BMI1,FaDu sphere cultures; gene BMI1,−47.40%
same,% Change CD24,FaDu sphere cultures; gene CD24,−26.46%
same,% Change CD34,FaDu sphere cultures; gene CD34,−88.18%
same,% Change CD44,FaDu sphere cultures; gene CD44,−35.44%
same,% Change CHEK1,FaDu sphere cultures; gene CHEK1,−28.88%
same,% Change DACH1,FaDu sphere cultures; gene DACH1,−36.55%
same,% Change DDR1,FaDu sphere cultures; gene DDR1,−38.59%
same,% Change DNMT1,FaDu sphere cultures; gene DNMT1,−32.09%
same,% Change EGF,FaDu sphere cultures; gene EGF,−19.07%
same,% Change ENG,FaDu sphere cultures; gene ENG,−37.62%
same,% Change EPCAM,FaDu sphere cultures; gene EPCAM,−22.87%
same,% Change ERBB2,FaDu sphere cultures; gene ERBB2,−43.81%
same,% Change ETFA,FaDu sphere cultures; gene ETFA,−31.12%
same,% Change FGFR2,FaDu sphere cultures; gene FGFR2,−41.18%
same,% Change FLOT2,FaDu sphere cultures; gene FLOT2,−29.19%
same,% Change FOXP1,FaDu sphere cultures; gene FOXP1,−29.76%
same,% Change GSK3B,FaDu sphere cultures; gene GSK3B,−38.06%
same,% Change HDAC1,FaDu sphere cultures; gene HDAC1,−36.10%
same,% Change HPRT1,FaDu sphere cultures; gene HPRT1,−33.81%
same,% Change ID1,FaDu sphere cultures; gene ID1,−12.68%
same,% Change IKBKB,FaDu sphere cultures; gene IKBKB,−32.11%
same,% Change IL8,FaDu sphere cultures; gene IL8,−7.62%
same,% Change ITGA2,FaDu sphere cultures; gene ITGA2,−60.71%
same,% Change ITGA4,FaDu sphere cultures; gene ITGA4,−11.52%
same,% Change ITGA6,FaDu sphere cultures; gene ITGA6,−54.63%
same,% Change ITGB1,FaDu sphere cultures; gene ITGB1,−50.45%
same,% Change JAG1,FaDu sphere cultures; gene JAG1,−14.24%
same,% Change JAK2,FaDu sphere cultures; gene JAK2,−47.94%
same,% Change KITLG,FaDu sphere cultures; gene KITLG,−47.99%
same,% Change KLF17,FaDu sphere cultures; gene KLF17,−90.18%
same,% Change LATS1,FaDu sphere cultures; gene LATS1,−60.75%
same,% Change LIN28A,FaDu sphere cultures; gene LIN28A,−87.52%
same,% Change MAML1,FaDu sphere cultures; gene MAML1,−52.82%
same,% Change MERTK,FaDu sphere cultures; gene MERTK,−65.78%
same,% Change MUC1,FaDu sphere cultures; gene MUC1,−27.42%
same,% Change MYC,FaDu sphere cultures; gene MYC,−3.91%
same,% Change NANOG,FaDu sphere cultures; gene NANOG,−93.34%
same,% Change NFKB1,FaDu sphere cultures; gene NFKB1,−25.54%
same,% Change NOTCH1,FaDu sphere cultures; gene NOTCH1,−46.24%
same,% Change NOTCH2,FaDu sphere cultures; gene NOTCH2,−64.37%
same,% Change PECAM1,FaDu sphere cultures; gene PECAM1,−70.26%
same,% Change PLAUR,FaDu sphere cultures; gene PLAUR,−20.64%
same,% Change POU5F1,FaDu sphere cultures; gene POU5F1,−77.31%
same,% Change RPLP0,FaDu sphere cultures; gene RPLP0,−17.48%
same,% Change SIRT1,FaDu sphere cultures; gene SIRT1,−43.35%
same,% Change SMO,FaDu sphere cultures; gene SMO,−55.56%
same,% Change STAT3,FaDu sphere cultures; gene STAT3,−22.87%
same,% Change TAZ,FaDu sphere cultures; gene TAZ,−15.09%
same,% Change TGFBR1,FaDu sphere cultures; gene TGFBR1,−53.34%
same,% Change TWIST2,FaDu sphere cultures; gene TWIST2,−21.59%
same,% Change WEE1,FaDu sphere cultures; gene WEE1,−42.86%
same,% Change WWC1,FaDu sphere cultures; gene WWC1,−51.64%
same,% Change YAP1,FaDu sphere cultures; gene YAP1,−47.45%
same,IL-6 level,IL-6,reduced IL-6 level in a time-dependent manner

# Source: patent US20180140572A1, “COMPOSITIONS COMPRISING A CANCER STEMNESS INHIBITOR AND AN IMMUNOTHERAPEUTIC AGENT FOR USE IN TREATING CANCER” (Boston Biomedical, Inc., priority 2015, published 2018)
